Legend:
[1] = tested on: Influenza A virus; settings: in vitro; cited from earlier work
[2] = in vitro; settings: cat
[3] = tested on: FIPV; experiment: Pre-compound assay; type: cell-based, feline infectious peritonitis virus; settings: cells pretreated 2 h, then FIPV 2 h, 24-HPI, crystal violet and IPMA
[4] = tested on: FIPV; experiment: Attachment assay; type: cell-based, feline infectious peritonitis virus; settings: co-adsorbed at 4°C for 1 h, 24-HPI
Experimental: Crandell–Rees feline kidney cells were seeded into a 96-well plate at 1.8 × 10^4 cells/well and cultured in MEM containing 7% FBS. Pre-compound, attachment, penetration, post-viral entry, and virucidal assays were performed based on each step of viral infection. […] For the antiviral activity assay, FIPV was used at 50 TCID50/well in all experiments. Crandell–Rees feline kidney cells were inoculated with FIPV and treated with 0.1% DMSO as vehicle control. GC376 (TargetMol®, Wellesley Hills, MA, USA) was used as the FIPV-specific drug control. Three experiments were performed in duplicate wells for each compound.
To determine whether the compounds could interfere with virus binding to the host cells, CRFK cells in a 96-well plate were prechilled at 4°C for 1 h, and cotreated with the FIPV inoculum and the diluted compounds or controls at 4°C for 1 h to allow virus binding, but not entry to the host cells.
For initial screening, FIPV infection was determined using crystal violet staining for all antiviral assays. Briefly, the supernatants were removed from the compound-treated and FIPV-infected CRFK and control cells, and the cells were fixed with cold methanol at room temperature (25°C) for 30 min. […] Five to ten images of positive FIPV-infected cells were recorded at a magnification of 100× using a phase-contrast inverted microscope (Olympus IX73). […]

[5] = tested on: FIPV; experiment: Penetration assay; type: cell-based, feline infectious peritonitis virus; settings: FIPV bound at 4°C 1 h, compound added at 37°C, 24 h
[6] = tested on: SARS-CoV-2 RdRp; settings: in vitro; cited from earlier work
[7] = tested on: Herpes simplex virus type 1; settings: in vitro; cited from earlier work

O=c1cc(-c2ccc(O)cc2)oc2cc(O)cc(O)c12 [Apigenin]
EC50 [1]: 5 to 20 µM
CC50 at 24 h ([2]; CC50): 22.2 µM

CC(C)C[C@H](NC(=O)OCc1ccccc1)C(=O)N[C@@H](C[C@@H]1CCNC1=O)C(O)S(=O)(=O)[O-].[Na+] (stereo partly drawn) [GC376]
cell protection (prophylactic) effect [3]: did not possess the prophylactic and virus attachment effects
effect on FIPV binding (attachment) [4]: did not possess the prophylactic and virus attachment effects
effect on FIPV penetration [5]: inhibited FIPV replication at high concentrations of up to 50 μM

COc1ccc([C@@H]2CC(=O)c3c(O)cc(O[C@@H]4O[C@H](CO[C@@H]5O[C@@H](C)[C@H](O)[C@@H](O)[C@H]5O)[C@@H](O)[C@H](O)[C@H]4O)cc3O2)cc1O [Hesperidin]
viral titer reduction [1]: Influenza A virus (in vitro: viral titer reduction at 3 log10 TCID50/0.1 mL)

O=c1c(-c2ccc(O)cc2)coc2c([C@@H]3O[C@H](CO)[C@@H](O)[C@H](O)[C@H]3O)c(O)ccc12 [Puerarin]
EC50 [1]: 52.1 µM
CC50 at 24 h ([2]; CC50): 195 µM

O=c1c(O)c(-c2ccc(O)c(O)c2)oc2cc(O)cc(O)c12 [Quercetin]
IC50 [6]: 6.9 µM
CC50 at 24 h [2]: > 200 µM

C[C@@H]1O[C@@H](OC[C@H]2O[C@@H](Oc3c(-c4ccc(O)c(O)c4)oc4cc(O)cc(O)c4c3=O)[C@H](O)[C@@H](O)[C@@H]2O)[C@H](O)[C@H](O)[C@H]1O [Rutin]
CC50 at 24 h ([2]; CC50): > 200 µM

Epicatechin-3-O-gallate
EC50 [7]: 4 µM

— publication PMC10082729, “First study on in vitro antiviral and virucidal effects of flavonoids against feline infectious peritonitis virus at the early stage of infection” (Veterinary World, 2023)
